What follows are molecules tested on Na^+-dependent Cl^−/HCO3^− exchanger (NCBE) (assay: Inhibition of the Na+-dependent Cl−/HCO3− exchanger (NCBE) in human endothelial cells (pHi recovery, BCECF fluorescence, FLIPR)). Conditions: 10 μM.
Format: cell-based
Protocol: Inhibition of the Na^+-dependent Cl^−/HCO3^− exchanger (NCBE) in human endothelial cells
Human endothelial cells (ECV-304) were detached form culture flasks with the aid of trypsin/EDTA buffer (0.05/0.02% in phosphate buffer) and, after centrifugation (100 g, 5 min), taken up in a buffered saline solution (mmol/l: 115 NaCl, 20 NH4Cl, 5 KCl, 1 CaCl2, 1 MgSO4, 20 N-(2-hydroxyethyl)-piperazine-N[…]-2-ethanesulfonic acid (HEPES), 5 glucose and 1 g/l of bovine serum albumin; pH 7.4). This cell suspension was incubated at 37 °C. for 20 min with 5 μM BCECF acetoxymethyl ester. The cells were then washed and resuspended in a sodium- and bicarbonate-free buffer solution (mmol/l: 5 HEPES, 133.8 choline chloride, 4.7 KCl, 1.25 MgCl2, 0.97 K2HPO4, 0.23 KH2PO4, 5 glucose; pH 7.4).
For the subsequent fluorescence measurement in the FLIPR (Fluorescent Imaging Plate Reader), 100 μl of this cell suspension in each case containing 20,000 cells were added by pipette per well of a 96-well microtiter plate and this microtiter plate was centrifuged (100 g, 5 min). In the FLIPR, 100 μl of buffer solution in each case were then removed from a further prepared microtiter plate and added by pipette to each of the 96 wells of the measuring plate. In this case, for a 100% control, i.e. a recovery of the intracellular pH (pHi) by means of the NCBE, a bicarbonate- and sodium-containing buffer solution (mmol/l: 5 HEPES, 93.8 NaCl, 40 NaHCO3, 4.7 KCl, 1.25 CaCl2, 1.25 MgCl2, 0.97 Na2HPO4, 0.23 NaH2PO4, 5 glucose; pH 7.4) which contained 50 μM HOE 642 was used. For a 0% control, i.e. no pHi recovery at all, a bicarbonate-free, sodium-containing buffer solution (mmol/l: 5 HEPES, 133.8 NaCl, 4.7 KCl, 1.25 CaCl2, 1.25 MgCl2, 0.97 Na2HPO4, 0.23 NaH2PO4, 5 glucose; pH 7.4) to which 50 μM HOE 642 were also added was employed. The compounds according to the invention were added in various concentrations of the sodium- and bicarbonate-containing solution. After addition of the buffer solutions to the dye-loaded acidified cells situated in the measuring plate, the increase in the fluorescence intensity which corresponded to an increase in the pHi was determined in each well of the microtiter plate.
The kinetics were in this case recorded at 35° C. over a period of 2 minutes. The increase in the fluorescence intensities for different concentrations of the compounds according to the invention was related to the two controls and from this the inhibitory action of the substances was determined.

| SMILES | Residual activity % of the NCBE at 10 μM |
| --- | --- |
| N#CNS(=O)(=O)c1ccccc1-c1ccc(CN(CCO)C(=O)Cc2cccs2)cc1 [Example 26] | 47.6% |
| CCCC(=O)N(Cc1ccc(OC)cc1)Cc1ccc(-c2ccccc2S(=O)(=O)NC#N)cc1 [Example 3] | 80.9% |
| COc1cccc(CN(Cc2ccc(-c3ccccc3S(=O)(=O)NC#N)cc2)C(=O)NC(C)C)c1 [Example 302] | 80.4% |
| N#CNS(=O)(=O)c1ccccc1-c1ccc(CN(Cc2ccc(Cl)c(Cl)c2)C(=O)CCCCc2ccccc2)cc1 [Example 262] | 45.3% |
| N#CNS(=O)(=O)c1ccccc1-c1ccc(CN(Cc2ccc(Cl)cc2)C(=O)CCc2ccccc2)cc1 [Example 66] | 83.1% |
| N#CNS(=O)(=O)c1ccccc1-c1ccc(CN(CCOc2ccccc2)C(=O)Cc2ccc(Cl)cc2)cc1 [Example 151] | 29.0% |
| COC(=O)C(Cc1ccccc1)N(Cc1ccc(-c2ccccc2S(=O)(=O)NC#N)cc1)C(=O)CCCCc1cccs1 (stereo not drawn) [Example 225] | 88.1% |
| N#CNS(=O)(=O)c1ccccc1-c1ccc(CN(CCc2cccs2)C(=O)Cc2ccc(Cl)cc2)cc1 [Example 150] | 44.7% |
| C[C@@H](c1ccccc1)N(Cc1ccc(-c2ccccc2S(=O)(=O)NC#N)cc1)C(=O)Cc1cccs1 [Example 132] | 63.8% |
| N#CNS(=O)(=O)c1ccccc1-c1ccc(CN(Cc2cccc3ccccc23)C(=O)Cc2ccccc2Br)cc1 [Example 277] | 36.3% |
| N#CNS(=O)(=O)c1ccccc1-c1ccc(CN(Cc2cccc(-c3ccccc3)c2)C(=O)CCOc2ccccc2)cc1 [Example 347] | 19.3% |
| COCCC(=O)N(Cc1ccc(-c2ccccc2S(=O)(=O)NC#N)cc1)C1CCc2ccccc21 (stereo not drawn) [Example 324] | 60.5% |
| CN(Cc1ccc(-c2ccccc2S(=O)(=O)NC#N)cc1)C(=O)CCCc1cccs1 [Example 190] | 43.4% |
| COc1ccccc1CN(Cc1ccc(-c2ccccc2S(=O)(=O)NC#N)cc1)C(=O)c1ccccc1F [Example 94] | 87.7% |
| CCN(Cc1ccc(-c2ccccc2S(=O)(=O)NC#N)cc1)C(=O)CCCc1cccs1 [Example 191] | 39.3% |
| CC(C)CN(Cc1ccc(-c2ccccc2S(=O)(=O)NC#N)cc1)C(=O)C(c1ccccc1)c1ccccc1 [Example 112] | 90.4% |
| Cc1ccc(CN(Cc2ccc(-c3ccccc3S(=O)(=O)NC#N)cc2)C(=O)Cc2ccccc2)cc1 [Example 125] | 63.6% |
| Cc1ccccc1CN(Cc1ccc(-c2ccccc2S(=O)(=O)NC#N)cc1)C(=O)CCOc1ccccc1 [Example 342] | 85.3% |
| COc1cccc(CN(Cc2ccc(-c3ccccc3S(=O)(=O)NC#N)cc2)C(=O)c2cccs2)c1 [Example 86] | 57.0% |
| N#CNS(=O)(=O)c1ccccc1-c1ccc(CN(CCO)C(=O)CCC2CCCCC2)cc1 [Example 8] | 86.7% |
| CCN(Cc1ccc(-c2ccccc2S(=O)(=O)NC#N)cc1)C(=O)CCCCc1cccs1 [Example 223] | 53.8% |
| N#CNS(=O)(=O)c1ccccc1-c1ccc(CN(Cc2cccc(Cl)c2)C(=O)Cc2ccc(O)cc2)cc1 [Example 285] | 58.8% |

| SMILES | Residual activity % of the NCBE at 10 μM |
| --- | --- |
| N#CNS(=O)(=O)c1ccccc1-c1ccc(CN(Cc2cccs2)C(=O)Cc2ccccc2[N+](=O)[O-])cc1 [Example 252] | 44.5% |
| COc1ccccc1CN(Cc1ccc(-c2ccccc2S(=O)(=O)NC#N)cc1)C(=O)c1cc2ccccc2s1 [Example 74] | 54.7% |
| C[C@@H](c1ccccc1)N(Cc1ccc(-c2ccccc2S(=O)(=O)NC#N)cc1)C(=O)c1cc2ccccc2s1 [Example 73] | 61.0% |
| N#CNS(=O)(=O)c1ccccc1-c1ccc(CN(Cc2ccncc2)C(=O)Cc2cccs2)cc1 [Example 146] | 69.8% |
| C#CCN(Cc1ccc(-c2ccccc2S(=O)(=O)NC#N)cc1)C(=O)C(NC(=O)OCc1ccccc1)c1ccccc1 (stereo not drawn) [Example 246] | 65.0% |
| CC(C)=CCCC(C)=CCN(Cc1ccc(-c2ccccc2S(=O)(=O)NC#N)cc1)C(=O)CC1CCCCC1 [Example 353] | 47.9% |
| C[C@H](c1ccccc1)N(Cc1ccc(-c2ccccc2S(=O)(=O)NC#N)cc1)C(=O)c1ccccc1F [Example 98] | 98.0% |
| N#CNS(=O)(=O)c1ccccc1-c1ccc(CN(Cc2cccc(Cl)c2)C(=O)NCc2ccccc2)cc1 [Example 307] | 55.8% |
| COc1cc(C(=O)N(Cc2ccccc2)Cc2ccc(-c3ccccc3S(=O)(=O)NC#N)cc2)cc(OC)c1OC [Example 49] | 75.8% |
| COC(=O)C(c1ccccc1)N(Cc1ccc(-c2ccccc2S(=O)(=O)NC#N)cc1)C(=O)CCc1cccs1 (stereo not drawn) [Example 286] | 68.8% |
| COCCC(=O)N(Cc1ccc(-c2ccccc2S(=O)(=O)NC#N)cc1)Cc1ccc2ccccc2c1 [Example 320] | 38.8% |
| CC(=O)N(Cc1ccc(F)cc1)Cc1ccc(-c2ccccc2S(=O)(=O)NC#N)cc1 [Example 185] | 85.0% |
| N#CNS(=O)(=O)c1ccccc1-c1ccc(CN(Cc2ccccc2Cl)C(=O)Cc2cccs2)cc1 [Example 143] | 35.7% |
| N#CNS(=O)(=O)c1ccccc1-c1ccc(CN(Cc2ccccc2F)C(=O)Cc2cccs2)cc1 [Example 316] | 14.4% |
| Cc1ccc(CN(Cc2ccc(-c3ccccc3S(=O)(=O)NC#N)cc2)C(=O)C(C(=O)Cc2ccccc2)c2ccccc2)cc1 (stereo not drawn) [Example 135] | 97.4% |
| N#CNS(=O)(=O)c1ccccc1-c1ccc(CN(Cc2cccc3ccccc23)C(=O)Cc2ccccc2Cl)cc1 [Example 293] | 55.1% |
| COc1ccc(CN(Cc2ccc(-c3ccccc3S(=O)(=O)NC#N)cc2)C(=O)Cc2cccc(OC)c2)cc1 [Example 21] | 52.3% |
| N#CNS(=O)(=O)c1ccccc1-c1ccc(CN(CCOc2ccccc2)C(=O)Cc2cccs2)cc1 [Example 142] | 27.1% |
| N#CNS(=O)(=O)c1ccccc1-c1ccc(CN(Cc2ccco2)C(=O)Cc2ccc(Cl)cc2)cc1 [Example 148] | 45.6% |
| N#CNS(=O)(=O)c1ccccc1-c1ccc(CN(Cc2cccs2)C(=O)CCCCc2ccccc2)cc1 [Example 253] | 35.3% |
| N#CNS(=O)(=O)c1ccccc1-c1ccc(CN(CC2=Nc3ccccc3CN2)C(=O)Cc2cccs2)cc1 [Example 238] | 54.7% |
| N#CNS(=O)(=O)c1ccccc1-c1ccc(CN(Cc2ccc(F)cc2)C(=O)Cc2ccc(Cl)cc2)cc1 [Example 157] | 24.9% |

Same assay, conditions: 10 μM compound; human endothelial cells (ECV-304); related to 100% and 0% pHi recovery controls

| SMILES | Residual activity of the NCBE at 10 μM |
| --- | --- |
| CS(=O)(=O)c1cc(-c2ccccc2S(=O)(=O)NC#N)ccc1CN(Cc1ccccc1)S(=O)(=O)c1cccs1 [Example 557, 4′-{[Benzyl(thiophene-2-sulfonyl)amino]methyl}-3′-methylsulfonylbiphenyl-2-sulfonylcyanamide] | 14% |

Same assay, conditions: compound at 10 μM; R(3) to R(7) hydrogen series

| SMILES | Residual activity % of the NCBE at 10 μM |
| --- | --- |
| N#CNS(=O)(=O)c1ccccc1-c1ccc(CN(CC2CCCO2)C(=O)CC2CCCC2)cc1 (stereo not drawn) [Example 368] | 51.0% |
| Cc1ccc(C(C)C(=O)N(Cc2ccccc2)Cc2ccc(-c3ccccc3S(=O)(=O)NC#N)cc2)s1 (stereo not drawn) [Example 481] | 62.6% |
| N#CNS(=O)(=O)c1ccccc1-c1ccc(CN(CC2(c3ccccc3)CCCC2)C(=O)Cc2cccs2)cc1 [Example 392] | 55.6% |

Same assay, conditions: compound at 10 μM; sub-table with R7 substituent

| SMILES | Residual activity % of the NCBE at 10 μM |
| --- | --- |
| Cc1ccc(-c2ccc(CN(Cc3cccc4ccccc34)C(=O)C(C)c3cccs3)cc2)c(S(=O)(=O)NC#N)c1 (stereo not drawn) [Example 522] | 85.6% |
| Cc1ccc(-c2ccc(CN(Cc3ccccc3Cl)C(=O)Cc3ccsc3)cc2)c(S(=O)(=O)NC#N)c1 [Example 540] | 64.6% |
| Cc1ccc(-c2ccc(CN(Cc3ccccc3F)C(=O)Cc3ccsc3)cc2)c(S(=O)(=O)NC#N)c1 [Example 543] | 55.3% |
